Results: patent publication US8778937B2, “Benzimidazole boronic acid derivatives as PI3 kinase inhibitors” (GlaxoSmithKline LLC, priority 2011, dated 2014)

How the values were obtained:
[1] = system: phosphorylation of AKT in MDA-MB-468 tumor cells; assay: Inhibition of phosphorylation of AKT (Ser473, MSD) in PTEN deficient tumor cell line MDA-MB-468; type: cell-based; settings: Homo sapiens, 0.5 h; MDA-MB-468 cells, 30 minutes compound treatment, Ser473-pAKT normalized to total AKT
Experimental: Cellular Assays—Inhibition of Phosphorylation of AKT in PTEN Deficient Tumor Cell Line MDA-MB-468
Compounds were evaluated for their ability to inhibit downstream phosphorylation of AKT in MDA-MB-468 tumor cells. Breast cancer cells were plated, incubated for approximately 16-20 hours and then treated with compound for 30 minutes. Final DMSO concentration on all cells was 0.15%. The cells were washed with Tris buffer and lysed in MesoScale Discovery (MSD) lysis buffer containing protease and phosphatase inhibitors (included in MSD kit). MSD Ser473-AKT duplex plates (Cat # MS6000) were used according to the manufacturer's instructions and plates were read on a SECTOR™ Imager 6000 using MSD Workbench software. For analysis of the Ser473-pAKT concentration response curves, the data was normalized using the corresponding total AKT value (sum of pAKT and AKT signal) and plotted as the percent of the DMSO-treated control values. The data was fit in Graphpad Prism version 4 for Windows (Graphpad Software, San Diego, Calif.).
The compounds listed in Table 2 were tested generally according to the assays described herein. Table 2 lists the IC50 values for either an experimental run or an average of two or more experimental runs with the examples shown.

MDA-MB-468 = assay: Cell growth inhibition in PTEN-deficient cell line MDA-MB-468, anchorage independent, Alamar Blue; type: cell-based; settings: Homo sapiens, 144 h, MDA-MB-468, anchorage independent (soft agar), 6 days incubation, read-out: Prolif EC50 (nM) MDA-MB-468
Experimental: Cellular Assays—Cell Growth Inhibition in PTEN-Deficient Cell Line MDA-MB-468
PTEN deficient tumor cell lines (MDA-MB-468) were cultured generally according to instructions supplied by cell culture supplier American Type Culture Collection, Manassas, Va., with 10% fetal bovine serum at 5% CO2 and 37° C. Cells were seeded into either a T-75 or a T-175 flask 3-4 days prior to 96-well assay plating such that the flasks were approximately 70-80% confluent of the time of harvest. Cells were harvested using 0.25% trypsin-EDTA (Invitrogen #25200056). Trypan Blue exclusion staining was used to determine cell number.
Viable cells were plated in clear, flat bottom 96-well plates (BD #353075) under anchorage independent conditions at 2,000-10,000 cells per well depending on the cell line. To generate anchorage independent growth conditions, a 5% agar stock solution in water was made and autoclaved to melt and sterilize. From the 5% agar solution, a 0.6% agar/media+10% fetal bovine serum (FBS) solution was made to generate a bottom agar layer in the plates to prevent cell attachment. Seventy five microliters per well of the 0.6% agar-media solution was added to the plates. After solidification, a cell solution of 266,870 to 1,334,022 cells (depending on the cell line) in 10 ml of 0.3% agar/media+10% FBS was made and 75 μl of the cell/media/agar suspension was added to the plates. After the cell layer solidified, 50 μl of media+10% FBS was added to the top of the cells. A 0.3% Brij 35 (Sigma B4184) solution in media+10% FBS was added to column 12 as a background subtraction control. The cells were incubated overnight at 5% CO2 and 37° C. The next day one plate of cells was processed at the time of compound addition to quantify the starting number of cells (T=0 or T0).
To generate the compound titration plates, 15 μl of a 2 mM or 20 μl of a 20 mM solution of the compound of example 31 was diluted in clear bottom polypropylene 96-well plate (BD #351190) using a 10 point, 3-fold titration or a 20 point 2-fold titration, respectively. Three hundred microliters of media was added to the compound dilutions. Ten microliters per well of the serial dilutions was added to the cells and the plates incubated for 6 days at 5% CO2 and 37° C. The final concentration of DMSO in all wells was 0.15% and the highest final concentration of the compound of example 31 was 3.7 μM or 30.7 μM.
Following the 6-day incubation, 20 μl of Alamar Blue (Invitrogen #DAL1100) was added to the cells, incubated at 5% CO2 and 37° C. for 6 hours and the plates read on a Spectramax (Gemini EM) at 530 nm (excitation) and 590 nm (emission) with the auto cut-off disabled. For analysis of cell growth inhibition dose response curves, the data was plotted as the percent of the DMSO-treated control samples (DMSO samples set to 100%). The cellular response was determined for compounds and control compounds by fitting the concentration response with a 4 parameter curve fit using XLfit software and determining the concentration that inhibits 50% of the Ymax-Ymin window (EC50). The EC50 is the midpoint of active compound effect window (between Ymax plateau and Ymin plateau of compound) and represents the concentration of the compound of example 31 where 50% of its maximal effect is observed. Values from wells containing 0.3% Brij 35 (under anchorage independent conditions) were subtracted from all samples for background correction.
The compounds listed in Table 3 were tested generally according to the assays described herein. Table 3 lists the EC50 values for either an experimental run or an average of two or more experimental runs with the examples shown.

Row | Structure (SMILES) | IC50 [1] [nM] | EC50 (MDA-MB-468) [nM]
1 | Cc1nc2c(B(O)O)cc(N3CCOCC3)cc2n1Cc1ccccc1Cl [Example 12, (1-(2-chlorobenzyl)-2-methyl-6-morpholino-1H-benzo[d]imidazol-4-yl)boronic acid] | 1490 | 3580
2 | Cc1c(Cn2c(C(F)F)nc3c(B(O)O)cc(N4CCOCC4)cc32)cccc1C(F)(F)F [Example 20, (2-(difluoromethyl)-1-(2-methyl-3-(trifluoromethyl)benzyl)-6-morpholino-1H-benzo[d]imidazol-4-yl)boronic acid] | 40.1 | 39.8
3 | Cc1cccc(Cn2c(C)nc3c(B(O)O)cc(N4CCOCC4)cc32)c1 [Example 10, (2-methyl-1-(3-methylbenzyl)-6-morpholino-1H-benzo[d]imidazol-4-yl)boronic acid] | 672 | 1880
4 | Cc1cccc(Cn2c(C)nc3c(B(O)O)cc(N4CCOCC4)cc32)c1C [Example 7, (1-(2,3-dimethylbenzyl)-2-methyl-6-morpholino-1H-benzo[d]imidazol-4-yl)boronic acid] | 45.6 | 18.3
5 | Cc1c(Cn2c(C)nc3c(B(O)O)cc(N4CCOCC4)cc32)cccc1C(F)(F)F [Example 4, (2-methyl-1-(2-methyl-3-(trifluoromethyl)benzyl)-6-morpholino-1H-benzo[d]imidazol-4-yl)boronic acid] | 18.7 | 11.1
6 | Cc1c(Cn2c(C(C)C)nc3c(B(O)O)cc(N4CCOCC4)cc32)cccc1C(F)(F)F [Example 22, (2-isopropyl-1-(2-methyl-3-(trifluoromethyl)benzyl)-6-morpholino-1H-benzo[d]imidazol-4-yl)boronic acid] | 74.6 | 161
7 | Cc1nc2c(B(O)O)cc(N3CCOCC3)cc2n1Cc1cccc2ccccc12 [Example 6, (2-methyl-6-morpholino-1-(naphthalen-1-ylmethyl)-1H-benzo[d]imidazol-4-yl)boronic acid] | 78.2 | 22.3
8 | Cc1c(Cl)cccc1Cn1c(C(F)(F)F)nc2c(B(O)O)cc(N3CCOCC3)cc21 [Example 21, (1-(3-chloro-2-methylbenzyl)-6-morpholino-2-(trifluoromethyl)-1H-benzo[d]imidazol-4-yl)boronic acid] | 92.9 | 130
9 | Cc1nc2c(B(O)O)cc(N3CCOCC3)cc2n1Cc1cccc(Cl)c1 [Example 13, (1-(3-chlorobenzyl)-2-methyl-6-morpholino-1H-benzo[d]imidazol-4-yl)boronic acid] | 105 | 246
10 | Cc1c(Cl)cccc1Cn1c(C(F)F)nc2c(B(O)O)cc(N3CCOCC3)cc21 [Example 19, (1-(3-chloro-2-methylbenzyl)-2-(difluoromethyl)-6-morpholino-1H-benzo[d]imidazol-4-yl)boronic acid] | 70.9 | 31.5
11 | Cc1ccccc1Cn1c(C)nc2c(B(O)O)cc(N3CCOCC3)cc21 [Example 11, (2-methyl-1-(2-methylbenzyl)-6-morpholino-1H-benzo[d]imidazol-4-yl)boronic acid] | 227 | 1140
12 | Cc1nc2c(B(O)O)cc(N3CCOCC3)cc2n1Cc1cccc(Cl)c1Cl [Example 8, (1-(2,3-dichlorobenzyl)-2-methyl-6-morpholino-1H-benzo[d]imidazol-4-yl)boronic acid] | 61 | 42
13 | Cc1c(Cn2c(CO)nc3c(B(O)O)cc(N4CCOCC4)cc32)cccc1C(F)(F)F [Example 18, (2-(hydroxymethyl)-1-(2-methyl-3-(trifluoromethyl)benzyl)-6-morpholino-1H-benzo[d]imidazol-4-yl)boronic acid] | 6.35 | 13.5
14 | Cc1c(Cn2cnc3c(B(O)O)cc(N4CCOCC4)cc32)cccc1C(F)(F)F [Example 14, (1-(2-methyl-3-(trifluoromethyl)benzyl)-6-morpholino-1H-benzo[d]imidazol-4-yl)boronic acid] | 24.4 | 62.8
15 | Cc1nc2c(B(O)O)cc(N3CCOCC3)cc2n1Cc1cccc2ccsc12 [Example 9] | 65.8 | 88.2
16 | Cc1c(Cn2c(C3CC3)nc3c(B(O)O)cc(N4CCOCC4)cc32)cccc1C(F)(F)F [Example 23, (2-cyclopropyl-1-(2-methyl-3-(trifluoromethyl)benzyl)-6-morpholino-1H-benzo[d]imidazol-4-yl)boronic acid] | 56.2 | 126
17 | Cc1c(Cl)cccc1Cn1c(CF)nc2c(B(O)O)cc(N3CCOCC3)cc21 [Example 17, (1-(3-chloro-2-methylbenzyl)-2-(fluoromethyl)-6-morpholino-1H-benzo[d]imidazol-4-yl)boronic acid] | 14.5 | 17.8
18 | Cc1c(Cn2c(CF)nc3c(B(O)O)cc(N4CCOCC4)cc32)cccc1C(F)(F)F [Example 16, (2-(fluoromethyl)-1-(2-methyl-3-(trifluoromethyl)benzyl)-6-morpholino-1H-benzo[d]imidazol-4-yl)boronic acid] | 19.1 | 21.5
19 | Cc1c(Cl)cccc1Cn1c(C)nc2c(B(O)O)cc(N3CCOCC3)cc21 [Example 5, (1-(3-chloro-2-methylbenzyl)-2-methyl-6-morpholino-1H-benzo[d]imidazol-4-yl)boronic acid] | 8.97 | 6.7
20 | Cc1c(Cl)cccc1Cn1cnc2c(B(O)O)cc(N3CCOCC3)cc21 [Example 15, (1-(3-chloro-2-methylbenzyl)-6-morpholino-1H-benzo[d]imidazol-4-yl)boronic acid] | 7.95 | 60
